Experimental data reported in patent US5436221A, “Tumor metastasis inhibiting compounds and methods” (Fuji Photo Film Co., Ltd., priority 1991, dated 1995).
Numbered stars: 1 amine (or outer) side, 2 acyl side, 3 side chain; on linkers, the order of the positions; unused ones are H or OH. Square brackets hold non-standard residues; d marks the D form. Ends that are not written are not given here. Peptide text beside a SMILES is read from it. * marks the point of attachment. X4 = O=C(O)[C@H]1OC(OCCOCCN*)[C@H](O)[C@@H](O)[C@@H]1O; Suc = O=C(CCC(=O)[*:2])[*:1]

Experiments:
[1] = tested on: B16-BL6 melanoma cells; assay: Experimental melanoma metastasis in lungs caused by injection of B16-BL6 melanoma cells; assay type: in vivo, C57BL/6 female mice
Method: The tumor metastasis inhibitory activities of the peptide derivatives of the present invention were examined as follows.
Each of the following peptide derivatives according to the present invention, Compounds 1 to 13, 15, 19 to 22, 25, 32, 36, 37, 44, 47, 50, 56-1, 56-4, 59, 65, 68, 70, 73, 76, 77, 80, 84, 87, 89, 90, 94, 96, 99, 101, 103,106, 112, 114, 118 and 121 was mixed with B16-BL6 melanoma cells having a potent metastatic tendency in PBS so that 0.2 ml of the mixture contained 3000, 1000 or 500 μg of the peptide derivative and 5×10^6 of B16-BL6 melanoma cells. Then, 0.2 ml of each mixture was intravenously administered to each individual of a group of C57BL/6 female mice consisting of 5 mice. Fourteen days after the administration, the number of melanoma cell colony in lungs was determined and compared with that of the control mice, which were administered with PBS.
(§1) For comparison, the peptide fragments known to have tumor metastasis inhibition activity, Arg--Gly--Asp--Ser (SEQ ID NO:16) (Comparison A), Gly--Arg--Gly--Asp--Ser (SEQ ID NO:17) (Comparison B) and (Arg--Gly--Asp)n(n=5) (SEQ ID NO:18) as well as Reference Polymer A were also administered to the mice in the same manner as above.

[2] = tested on: L5178Y ML25 T-lymphoma cells; assay: Experimental T-lymphoma metastasis in liver and spleen caused by injection of L5178Y ML25 T-lymphoma cells; assay type: in vivo, CDF1 (BALB/c×DBA/2) female mice; conditions: dose 1000 μg mixed with T-lymphoma cells, i.v., 14 days after; for Weight (g): Average ± SD Spleen: PBS control 0.28 ± 0.03, no tumor cells 0.08 ± 0; for Weight (g): Average ± SD Liver: PBS control 4.21 ± 0.49, no tumor cells 1.09 ± 0.11
Method: Separately, each of the following peptide derivatives of the present invention, Compound 1, 2, 8, 12, 20, 47, 56, 59, 67, 73 and 85, was mixed with L5178Y ML25 T-lymphoma cells in PBS so that 0.2 ml of the mixture contained 3000 or 1000 μg of the peptide derivative and 4×10^4 of the T-lymphoma cells. Then, 0.2 ml of each mixture was intravenously administered to each individual of a group of CDF1 (BALB/c×DBA/2) female mice consisting of 5 mice. Fourteen days after the administration, the weights of the livers and the spleens of the mice were determined and compared with those of the control mice.
as §1

[3] = Experiment 4, dose 500 μg, PBS control 116 ± 19
[4] = Experiment 7, dose 500 μg, PBS control 85 ± 20
[5] = Experiment 1, dose 3000 μg mixed with B16-BL6 cells, i.v., lung colonies 14 days after, PBS control 116 ± 27
[6] = Experiment 3, dose 500 μg, lung colonies 14 days after, PBS control 145 ± 30
[7] = Experiment 2, dose 1000 μg mixed with B16-BL6 cells, i.v., lung colonies 14 days after, PBS control 84 ± 11
[8] = Experiment 5, dose 1000 μg, PBS control 91 ± 33
[9] = Experiment 6, dose 500 μg, PBS control 128 ± 24

## Succinylated Pantaethylenehexaamine (β-Ala--Arg--Leu--Asp--Ser--NH--iPr)6 [Compound 77]
[1]; [3]
  Number of Colony Average ± SD: 41 ± 6

## Tetrahydrofuran-2,3,4,5-Tetracarboxylic Acid (Arg--Leu--Asp--Ser)4 (RLDS; also: four copies on tetrahydrofuran-2,3,4,5-tetracarboxylic acid core) [Compound 73]
[1]; [3]
  Number of Colony Average ± SD: 38 ± 7
[2]
  Weight (g): Average ± SD Spleen: 0.15 ± 0.05 g
  Weight (g): Average ± SD Liver: 1.95 ± 1.00 g

## Succinyl Derivative of Chondroitin Sulfate Carrying --(Arg--D--Leu--Asp--Ser)2 [Compound 121]
[1]; [4]
  Number of Colony Average ± SD: 45 ± 11

## 6-O-Carboxymethyl-N-Acetylchitohexaose Carrying --Gly--Arg--Phe--Asp--Ser [Compound 96]
[1]; [4]
  Number of Colony Average ± SD: 9 ± 4

## 6-O-Sulfated-Carboxymethyl-N-Acetylchitooligosaccharide Carrying --Asp--Arg--D--Phe--Asp--Ser [Compound 101]
[1]; [4]
  Number of Colony Average ± SD: 13 ± 6

## 6-O-Carboxymethyl-N-Acetylchitohexaose Carrying --Asp--Arg--Leu--Asp--Ser [Compound 94]
[1]; [4]
  Number of Colony Average ± SD: 14 ± 3

## 6-O-Sulfated-Carboxymethyl-N-Acetylchitooligosaccharide Carrying --Asp--Arg--D--Leu--Asp--Ser [Compound 99]
[1]; [4]
  Number of Colony Average ± SD: 3 ± 3

## C[C@@H](NC(=O)[C@@H](N)CCCNC(=N)N)C(=O)N[C@@H](CC(=O)O)C(=O)N[C@H](C(N)=O)[C@@H](C)O [Compound 10] (H-R[dA]DT-NH2)
[1]; [5]
  Number of Colony Average ± SD: 58 ± 15

## GRLDS [Compound 15]
[1]; [5]
  Number of Colony Average ± SD: 43 ± 12

## Succinylated CM-Chitin Carrying --(Arg--D--Leu--Asp--Ser)2 [Compound 112]
[1]; [4]
  Number of Colony Average ± SD: 14 ± 7

## Succinylated CM-Chitin Carrying --Gly--Arg--D--Leu--Asp--Ser [Compound 106]
[1]; [4]
  Number of Colony Average ± SD: 1 ± 1

## RLDSRLDSRLDSRLDS [Compound 36]
[1]; [6]
  Number of Colony Average ± SD: 46 ± 6

## R[dL]DR[dL]DR[dL]DR[dL]DR[dL]DR[dL]DR[dL]DR[dL]DR[dL]DR[dL]DR[dL]DR[dL]DR[dL]DR[dL]DR[dL]DR[dL]DR[dL]DR[dL]DR[dL]DR[dL]D [Compound 44]
[1]; [6]
  Number of Colony Average ± SD: 66 ± 15

## N=C(N)NCCC[C@H](N)C(=O)NCC(=O)N[C@@H](CC(=O)O)C(=O)N[C@@H](CO)C(=O)O [Comparison A, Arg--Gly--Asp--Ser]
[1]; [5]
  Number of Colony Average ± SD: 70 ± 8
[1]; [7]
  Number of Colony Average ± SD: 62 ± 9
[1]; Experiment 3, dose 3000 μg, PBS control 145 ± 30
  Number of Colony Average ± SD: 92 ± 14
[1]; Experiment 4, dose 3000 μg, PBS control 116 ± 19
  Number of Colony Average ± SD: 74 ± 11
[1]; Experiment 5, dose 3000 μg, PBS control 91 ± 33
  Number of Colony Average ± SD: 60 ± 4
[1]; Experiment 6, dose 3000 μg, PBS control 128 ± 24
  Number of Colony Average ± SD: 88 ± 20
[1]; Experiment 7, dose 3000 μg, PBS control 85 ± 20
  Number of Colony Average ± SD: 51 ± 6
[2]
  Weight (g): Average ± SD Spleen: 0.22 ± 0.03 g
  Weight (g): Average ± SD Liver: 3.67 ± 1.04 g

## Iminodiacetic Acid-Tetracraboxylic Acid Derivative (β-Ala--Arg--Leu--Asp--Ser)4 [Compound 76]
[1]; [3]
  Number of Colony Average ± SD: 48 ± 5

## (Arg--Gly--Asp)n(n=5) [Comparison C]
[1]; Experiment 1, dose 1000 μg mixed with B16-BL6 cells, i.v., lung colonies 14 days after, PBS control 116 ± 27
  Number of Colony Average ± SD: 40 ± 15
[1]; [7]
  Number of Colony Average ± SD: 23 ± 9
[1]; [6]
  Number of Colony Average ± SD: 68 ± 9
[1]; [8]
  Number of Colony Average ± SD: 39 ± 11
[1]; [9]
  Number of Colony Average ± SD: 57 ± 12
[1]; [4]
  Number of Colony Average ± SD: 44 ± 16

## CC(C)C[C@H](NC(=O)[C@@H](N)CCCNC(=N)N)C(=O)N[C@@H](CC(=O)O)C(=O)N[C@@H](CO)C(N)=O [Compound 9] (H-RLDS-NH2)
[1]; [5]
  Number of Colony Average ± SD: 22 ± 10

## Sulfated CM-Chitin Carrying --Gly--D--Arg--Leu--Asp--Ser [Compound 114]
[1]; [4]
  Number of Colony Average ± SD: 21 ± 11

## N=C(N)NCCC[C@H](NC(=O)CN)C(=O)NCC(=O)N[C@@H](CC(=O)O)C(=O)N[C@@H](CO)C(=O)O [Comparison B, Gly--Arg--Gly--Asp--Ser]
[1]; [5]
  Number of Colony Average ± SD: 50 ± 10
[1]; [7]
  Number of Colony Average ± SD: 40 ± 10
[1]; Experiment 3, dose 1000 μg, PBS control 145 ± 30
  Number of Colony Average ± SD: 89 ± 18
[1]; Experiment 4, dose 1000 μg, PBS control 116 ± 19
  Number of Colony Average ± SD: 78 ± 8
[1]; [8]
  Number of Colony Average ± SD: 49 ± 7
[1]; Experiment 6, dose 1000 μg, PBS control 128 ± 24
  Number of Colony Average ± SD: 76 ± 6
[1]; Experiment 7, dose 1000 μg, PBS control 85 ± 20
  Number of Colony Average ± SD: 50 ± 8
[2]
  Weight (g): Average ± SD Spleen: 0.17 ± 0.03 g
  Weight (g): Average ± SD Liver: 2.24 ± 0.46 g

## Succinylated Chondroitin Sulfate Carrying --D--Arg--Phe--Asp--Ser [Compound 118]
[1]; [4]
  Number of Colony Average ± SD: 43 ± 8

## CC(C)C[C@@H](NC(=O)[C@H](CCCNC(=N)N)NC(=O)[C@H](CO)NC(=O)[C@H](CC(=O)O)NC(=O)[C@@H](CC(C)C)NC(=O)[C@H](CCCNC(=N)N)NC(=O)[C@H](CO)NC(=O)[C@H](CC(=O)O)NC(=O)[C@@H](CC(C)C)NC(=O)[C@H](CCCNC(=N)N)NC(=O)[C@H](CO)NC(=O)[C@H](CC(=O)O)NC(=O)[C@@H](CC(C)C)NC(=O)[C@@H](N)CCCNC(=N)N)C(=O)N[C@@H](CC(=O)O)C(=O)N[C@@H](CO)C(=O)O [Compound 37] (H-R[dL]DSR[dL]DSR[dL]DSR[dL]DS-OH)
[1]; [6]
  Number of Colony Average ± SD: 27 ± 11

## CC(=O)N[C@@H](CC(=O)O)C(=O)N[C@H](CCCNC(=N)N)C(=O)N[C@@H](CC(C)C)C(=O)N[C@@H](CC(=O)O)C(=O)N[C@@H](CO)C(=O)O [Compound 32] (Ac-D[dR]LDS-OH)
[1]; [7]
  Number of Colony Average ± SD: 24 ± 5

## CC(C)C[C@H](NC(=O)[C@H](CCCNC(=N)N)NC(=O)CCC(=O)NCCOCCOC1O[C@H](C(=O)O)[C@@H](O)[C@H](O)[C@H]1O)C(=O)N[C@@H](CC(=O)O)C(=O)N[C@@H](CO)C(=O)O (some centres unmarked) [Compound 80] ({X4-Suc}-RLDS-OH)
[1]; [9]
  Number of Colony Average ± SD: 36 ± 7

## Succinylated Polyallylamine Carrying --(Asp--D--Arg--Phe--Asp--Ser)2 [Compound 103]
[1]; [4]
  Number of Colony Average ± SD: 24 ± 8
